Measurements published in patent publication US20210292333A1, “CONDENSED AZAHETEROARYL COMPOUNDS HAVING ANTIBACTERIAL ACTIVITY AGAINST TU[…]” (CADILA HEALTHCARE LIMITED, priority 2018, published 2021).
≈ marks a conversion by molar mass, not a printed value.

Columns and labels:
[1] = Pharmacokinetics of the compounds in mice (IV and oral single dose); format: in vivo; details: mouse, plasma, Balb/c mice; for bioavailability: PO 3 mg/kg vs IV 1 mg/kg, read-out: F(%) absolute oral bioavailability; for AUC(0-t) / Cmax: single dose, Oral (PO) 3 mg/kg suspension, IV 1 mg/kg, route not given
Method: Balb/c mice were obtained from Zydus Research Centre, Ahmedabad India, AAALAC Accreditation. All animals were housed in temperature-control rooms with appropriate light/dark cycles. The animals were overnight fasted before oral gavage dosing but were given access to water ad libitum. Food was provided 4 h after dosing. All animal studies were conducted according to protocols reviewed and approved by the Institutional Animal Care and Ethics Committee at the Zydus Research Centre. Compounds were dosed as a solution in 10% NMP and 10% solutol in Normal Saline (Intravenous (IV), 1 mg/kg) and homogenous suspension (Oral (PO), 3 mg/kg) in 0.5% Tween 80 in 0.5% methyl cellulose as a single dose in mice. For mouse composite PK profile was generated. Blood samples were collected at 0.08 (IV only), 0.25, 0.5, 1, 2, 4, 6, 7.5, and 24 h post-dose in Na-heparin coated micro centrifuge tubes. Blood samples were centrifuged to separate plasma which were then stored at −70° C. until analysis. PK parameters were calculated by non-compartmental analysis using Phoenix (Pharsight Corp., Mountain View, Calif.). A model was selected based on the vascular (IV bolus) or extravascular (PO) routes of administration. For the PO route, concentration at time zero was assumed to be zero. Plasma concentrations below the limit of quantitation were treated as zero concentration for the purpose of calculating the mean plasma concentration values. Pharmacokinetic parameters such as maximum plasma concentration (Cmax), area under the curve of concentration over the time (AUC (0-t)) and absolute oral bioavailability (F (%)) of the selected compounds are shown in Table 3.

[2] = test system: Mycobacterium tuberculosis H37Rv; experiment: Minimum Inhibitory Concentration (MIC) determination, MABA assay; format: cell-based; details: 168 h, 7H9 medium, 7 days at 37° C., alamar blue, read-out: Mtb MIC
Method: To assess the bacterial growth inhibitory effect of the compounds of the invention, MABA assay was performed with log phase culture of Mycobacterium tuberculosis H37Rv. Bacterial culture of optical density 0.6-0.8 was diluted to final density of 0.02 in 7H9 medium. 100 μl of diluted Mycobacterium tuberculosis H37Rv was incubated with the test compounds in microtiter plate. A drug free control containing DMSO also was also prepared. Following incubation of the compound with culture for 7 days at 37° C., 20 μl of 0.02% alamar blue (freshly prepared) was added in each well. The color was allowed to develop for 16 h at 37° C. Blue color in the well indicated no growth whereas pink color signifies growth in the well. MIC value is defined as the lowest concentration that prevents the color change from blue to pink. Fluorescence was measured at excitation at 530 nm and emission at 590 nm.

Compound `CCOc1ncnc(Cn2cc(C(=O)NCC3(O)CC3)c3ncc(C)nc32)c1C` [Example 13, 5-((6-ethoxy-5-methylpyrimidin-4-yl)methyl)-N-((1-hydroxycyclopropyl)methyl)-3-methyl-5H-pyrrolo[2,3-b]pyrazine-7-carboxamide] has a bioavailability [1] of 100%, an AUC(0-t) [1] of 2150 ng·h/mL and a Cmax [1] of 1320 ng/mL. For the same compound, the MIC [2] was 0.25 µM (≈ 0.0991 µg/mL).
`COc1ncnc(Cn2nc(C(=O)NCC3(O)CC3)c3ncc(C)nc32)c1C` [Example 14, N-((1-hydroxycyclopropyl)methyl)-1-((6-methoxy-5-methylpyrimidin-4-yl)methyl)-6-methyl-1H-pyrazolo[3,4-b]pyrazine-3-carboxamide] gave a bioavailability [1] of 90%, an AUC(0-t) [1] of 1680 ng·h/mL and a Cmax [1] of 1600 ng/mL.
Compound `COc1ncnc(Cn2cc(C(=O)NCC3(O)CC3)c3ncc(C)nc32)c1C` [Example 11, N-((1-hydroxycyclopropyl)methyl)-5-((6-methoxy-5-methylpyrimidin-4-yl)methyl)-3-methyl-5H-pyrrolo[2,3-b]pyrazine-7-carboxamide] has a bioavailability [1] of 100%, an AUC(0-t) [1] of 2570 ng·h/mL and a Cmax [1] of 1660 ng/mL. For the same compound, the MIC [2] was 0.5 µM (≈ 0.191 µg/mL).
`COCCNC(=O)c1nn(Cc2ncnc(OC)c2C)c2cc(C)cnc12` [Example 10, 1-((6-methoxy-5-methylpyrimidin-4-yl)methyl)-N-(2-methoxyethyl)-6-methyl-1H-pyrazolo[4,3-b]pyridine-3-carboxamide] gave a bioavailability [1] of 100%, an AUC(0-t) [1] of 5130 ng·h/mL and a Cmax [1] of 4000 ng/mL. For the same compound, the MIC [2] was 5 µM (≈ 1.85 µg/mL).
Work on `CCOc1ncnc(Cn2nc(C(=O)NCC3(O)CC3)c3ncc(C)cc32)c1C` [Example 3, 1-((6-ethoxy-5-methylpyrimidin-4-yl)methyl)-N-((1-hydroxycyclopropyl)methyl)-6-methyl-1H-pyrazolo[4,3-b]pyridine-3-carboxamide] yielded a bioavailability [1] of 100%, an AUC(0-t) [1] of 2810 ng·h/mL and a Cmax [1] of 2720 ng/mL. The MIC [2] was no more than 0.625 µM.
Work on `COc1ncnc(Cn2cc(C(=O)NCC3(O)CC3)c3ncc(C)cc32)c1C` [Example 85, N-((1-hydroxycyclopropyl)methyl)-1-((6-methoxy-5-methylpyrimidin-4-yl)methyl)-6-methyl-1H-pyrrolo[3,2-b]pyridine-3-carboxamide] yielded a bioavailability [1] of 94%, an AUC(0-t) [1] of 2180 ng·h/mL and a Cmax [1] of 1470 ng/mL. For the same compound, the MIC [2] was no more than 0.0625 µM.
For `COc1nc(C)ccc1Cn1nc(C(=O)NCC2(O)CC2)c2ncc(C)cc21` [Example 9, N-((1-hydroxycyclopropyl)methyl)-1-((2-methoxy-6-methylpyridin-3-yl)methyl)-6-methyl-1H-pyrazolo[4,3-b]pyridine-3-carboxamide], the bioavailability [1] was 78%, the AUC(0-t) [1] was 2160 ng·h/mL and the Cmax [1] was 1570 ng/mL.
Work on `COc1cnc2c(C(=O)NCC3(O)CC3)cn(Cc3ncnc(OC)c3C)c2n1` [Example 12, N-((1-hydroxycyclopropyl)methyl)-3-methoxy-5-((6-methoxy-5-methylpyrimidin-4-yl)methyl)-5H-pyrrolo[2,3-b]pyrazine-7-carboxamide] yielded a bioavailability [1] of 100%, an AUC(0-t) [1] of 2920 ng·h/mL and a Cmax [1] of 1720 ng/mL. For the same compound, the MIC [2] was 0.25 µM (≈ 0.0996 µg/mL).
With `COc1ncnc(Cn2nc(C(=O)NCC3(O)CC3)c3ncc(C)cc32)c1C` [Example 1, N-((1-hydroxycyclopropyl)methyl)-1-((6-methoxy-5-methylpyrimidin-4-yl)methyl)-6-methyl-1H-pyrazolo[4,3-b]pyridine-3-carboxamide] the bioavailability [1] was 100%, the AUC(0-t) [1] was 2850 ng·h/mL and the Cmax [1] was 1730 ng/mL. It also gave an MIC [2] of 1.25 µM (≈ 0.478 µg/mL).
